Data on three compounds can be found in patent US6613534B2, “MAP-2 as a determinant of metastatic potential” (Wake Forest University Health Sciences, priority 2001, dated 2003).

“Also recorded” adds a separate entry of the source. Read-outs that look alike come from different tables or passages of the source.

Test [1] concerns MAP-2 mRNA in SK-MEL-19 melanoma cells. In words: Northern blot of total RNA for MAP-2 expression, cAMP and protein kinase C pathway agents (FIG. 8). Format: cell-based, human.
Test [2] has as its system TYRP1 mRNA in SK-MEL-19 melanoma cells. In words: Northern blot of total RNA for TYRP1 expression (FIG. 8). The class given is cell-based, human.
The subject of test [3] is SK-MEL-19 human metastatic melanoma cell line. In words: Cell morphology of HMBA-treated melanoma cells (FIG. 3). The class given is cell-based. The following applies: SK-MEL-19, 5 mM HMBA for 5 days.
For test [4], the system named is MAP-2 cDNA (approximately 450 bp fragment) in SK-MEL-19 melanoma cells. Put plainly: Differential display RT-PCR of control and HMBA-treated cells. Format: cell-based, human. The following applies: 5 mM HMBA-treated vs control SK-MEL-19 cells. The procedure:
Differential display was used to characterize changes in gene expression associated with growth inhibition in melanoma cells. For differential display (DD), RT-PCR was performed using a GeneAmp System 2400 (Perkin-Elmer Corp., Foster City, Calif.). DD was performed using the DeltaTM Differential Display Kit (Clontech Laboratories Inc.). […] Diluted cDNA (1:12.5 and 1:50) was used to amplify DD-PCR product in the presence of [α-^33P]dATP (Dupont NEN, Boston, Mass.) using a random combination of arbitrary primers and oligo (dT) primers. PCR products were resolved by electrophoresis in a 5% polyacrylamide, 8 M urea sequencing gel. The gel was dried and exposed to Biomax MS film (Kodak, Rochester, N.Y.). Bands differentially expressed between untreated and treated samples were cut, eluted, re-amplified, sequenced by the ABI 377 DNA Sequencer (Perkin-Elmer Corp., Foster City, Calif.). Differential display analysis was performed using RNA obtained from control and HMBA-treated SK-MEL-19 melanoma cells. Primer […] NO: 4) and oligo dT primer […] U32996; nucleotides 1931-2384). […] Cell Biol., 106:779-783 (1988)).

For test [5], the system named is cultured human metastatic melanoma cells. The conditions noted are these: cited from earlier work.
Test [6] relates to TYRP1 in cultured human metastatic melanoma cells. The conditions noted are these: cited from earlier work.
The test system of test [7] is mouse erythroleukemia cells (MEL) and a variety of human tumor cells. The following applies: cited from earlier work.
[8] abbreviates: SK-MEL-19, 5 mM HMBA, 2.5 nM CT, 10 ng/ml TPA or combinations, 6, 24 and 48 h.

For `CCCCCCCCCCCCCC(=O)O[C@@H]1[C@@H](C)[C@@]2(O)[C@@H](C=C(CO)C[C@]3(O)C(=O)C(C)=C[C@@H]23)[C@@H]2C(C)(C)[C@]12OC(C)=O` [TPA, 12-O-tetradecanoyl phorbol-13-acetate], the “MAP-2 expression (MAP-2c mRNA)” value in test [1] was “did not induce MAP-2 expression; also recorded: does not change MAP-2 expression”. In test [2], the “TYRP1 mRNA expression” value is on record as “did not cause down-regulation of TYRP1 mRNA”.
Turning to cholera toxin [CT], the “MAP-2 expression (MAP-2c mRNA)” value in test [1] is on record as “did not induce MAP-2 expression; also recorded: does not change MAP-2 expression”. The “TYRP1 mRNA expression” value in test [2] is reported as “did not cause down-regulation of TYRP1 mRNA”.
Regarding `CC(=O)NCCCCCCNC(C)=O` [HMBA, hexamethylene bisacetamide], the “MAP-2 expression (MAP-2c mRNA)” value in test [1] (setting [8]) is “up-regulation of MAP-2 expression was detected”. In addition, the “TYRP1 mRNA expression” value in test [2] (setting [8]) is recorded as “extinction of TYRP1 expression”. Moreover, the cell morphology result in test [3] was “induction of dendritic morphology; also recorded: formation of dendrite-like structures”. The “expression of ~450 bp MAP-2 cDNA by differential display” value in test [4] was “over expressed in treated cells; also recorded: generates an approximately 450 bp cDNA”. In addition, in test [5], the cell growth result is given as “inhibits growth”. Moreover, the TYRP1 expression result in test [6] is recorded as “selective down-regulation”. For the same compound, in test [7], the cell cycle distribution entry is recorded as “accumulation of cells in G0/G1 phase with a significant decrease in population of cells in G2/M phase”. The terminal differentiation result in test [7] (mouse erythroleukemia cells (MEL) and a variety of human tumor cells) was “induce terminal differentiation”.
